Laboratory results from patent publication US20060088897A1, “Modulators” (priority 2003, published 2006).
Entries after “also recorded” stand apart in the source; their conditions may differ.

B1: CSF: growth factor for Bac1 macrophages; activates Cdc42Hs and Rac1 (protein, UniProt P07141 33-552, looked up)
Macrophage colony-stimulating …: KEVSEHCSHMIGNGHLKVLQQLIDSQMETSCQIAFEFVDQEQLDDPVCYLKKAFFLVQDIIDETMRFKDNTPNANATERLQELSNNLNSCFTKDYEEQNKACVRTFHETPLQLLEKIKNFFNETKNLLEKDWNIFTKNCNNSFAKCSSRDVVTKPDCNCLYPKATPSSDPASASPHQPPAPSMAPLAGLAWDDSQRTEGSSLLPSELPLRIEDPGSAKQRPPRSTCQTLESTEQPNHGDRLTEDSQPHPSAGGPVPGVEDILESSLGTNWVLEEASGEASEGFLTQEAKFSPSTPVGGSIQAETDRPRALSASPFPKSTEDQKPVDITDRPLTEVNPMRPIGQTQNNTPEKTDGTSTLREDHQEPGSPHIATPNPQRVSNSATPVAQLLLPKSHSWGIVLPLGELEGKRSTRDRRSPAELEGGSASEGAARPVARFNSIPLTDTGHVEQHEGSSDPQIPESVFHLLVPGIILVLLTVGGLLFYKWKWRSHRDPQTLDSSVGRPEDSSLTQDEDRQVELPV

Columns and labels:
Assay type in all cases: cell-based
N1E-115 cells [1] = assay: Phase contrast time-lapse analysis of filopodia and lamellipodia formation in a gradient of IGF; details: followed for 60 min; FIG. 8C
Protocol: (§1) Cells are starved for 2-3 h and then injected with peptides. Cells are then incubated for 2 h before being stained with phalloiden and examined by confocal microscopy (as described in the materials and methods section). (A) Cells are injected with IgG (a), with αP2 (b), with βP2 (c) and γP2 (d). Bar=10 μM. (B) Cells are exposed to bioporter with peptides and presence of neurites, pronounced filopodia and pronounced lamellipodia/ruffles scored (definitions as in FIG. 7). (C) Cells are either exposed to bioporter reagent coated peptides (αP2 and βP2) and then IGF or serum starvation used to activate cells. For γP2 cells are injected with peptide and stimulated with serum. Filopodia and lamellipodia are scored by using time-lapse phase contrast microscopy. +/−SEM of 3 experiments (n=900). Control peptide is taken from the kinase domain and common to the three PAK isoforms.
Time lapse microscopy is carried out on a heated stage (37° C.) in an atmosphere of humidified air and 5% CO2. Cells are video recorded using a, Axiovert 135 microscope, Palmix TM-6CN video camera and Sony-u-matic V0-5800 PS video recorder. Individual images are captured using Bio-rad COMOS software and manipulated with Adobe photoshop. Confocal microscopy is carried out using a LSM 410 Zeiss scanning microscope with 3 single line lasers at 488 nM (argon), 543 nM and 633 nM, (HeNe). […]

N1E-115 cells [2] = assay: Microinjection of peptides into partially serum starved N1E-115 cells, phalloidin staining and confocal microscopy of cell morphology; details: for effect on formation of lamellipodia, filopodia or neurites concluded from microinjection: FIG. 8A; for cell morphology after peptide microinjection: peptide injected at 10 μg/ml, cells serum starved 2-4 h, FIG. 7A, 8A
Protocol: Cells are starved for 2-3 h and then either injected with peptides (10 μg/ml) or exposed to peptides with bioporter reagent. Cells are incubated for a further 2 h before being stained with phalloiden and examined by confocal microscopy (as described in the materials and methods section). (A) The upper cells is injected with αP1 (a), or all cells injected with αP1*(b), or exposed to αP2 with bioporter reagent (c). […] Results are expressed as means+/−SEM of 3 experiments (n=333-426 cells). […] (D) Cells are exposed to bioporter reagent with αP2 and after 6 h double stained with αPAK and vinculin antibodies; (a) Vinculin/αPAK, (b) Vinculin and (c) αPAK. Bar=10 μM. Control bars are with IgG with bioporter/microinjection.
as §1
Cells are plated out at 1.0×10^5 cells in 1 ml in a 35 mm dish containing 2 laminin coated coverslips. The coverslips are first marked with a grid using a fine permanent marker and then coated with laminin and incubated overnight in DMEM, 10% FCS, 1% AB/AM. The media is replaced with serum free media (DMEM, 1% AB/AM) and the cells starved for 1 hour so that they flattened and are easier to inject. The peptides are injected at 10 μg/ml in PBS, Rat IgG at 1 mg/ml is added to act as a marker for injected cells.
The cells are injected using an Eppendorf microinjection apparatus on an Axioplan inverted microscope equipped with a heated stage maintained at 37° C. and a 5% CO2 chamber. Humidity is maintained by a dish of sterile water inside the CO2 chamber. Cells in a grid square are injected and positive injection checked visually at the time of injection or after fixation and staining for the injected marker. After injection the cells are returned to the incubator for a further 2 hours. Giving a total time without serum of 4 hours.
The only difference between these two peptides being that the latter peptide is phosphorylated on serine and this modification prevents it from binding Nck (Zhao et al., 1998). To investigate the effects of peptides we first serum starve the cells for 2-4 h to activate Cdc42Hs and Rac.

N1E-115 cells [3] = assay: Cell guidance assay at Laminin/CSPG boundary (axonal guidance); details: for neurite morphology: serum starved cells, FIG. 9A
Protocol: Effect of PAK peptides on neurite morphology. Cells are exposed to control peptide, αP 1*, αP2, βP2, or γP2 and neurite morphology assessed. (B) Cells are plated on coverslips that been treated to create a Laminin/CSGP boundary. After 6 h cells are examined for their ability to project neurites that crossed the substrate boundary. Cells exposed to bioporter coated peptides, (a) αP2, (b) βP2, and (c) γP2. […] Results are means+/−SEM (n=161-263). (C) Cells are exposed to peptides and after 6 h are scored for their ability to cross boundary from Laminin to CSPG.
The coverslips are washed and sterilised and then coated in one of the following ways.
A second layer of laminin is applied as a drop mixed with 1 μg/ml TRITC label. Coverslips are left for 1 hour at RT and then rinsed twice with sterile water before allowing to dry before use. (iii) Attractive/repulsive boundary. Slides are coated with CSPG 5 μg/ml for 1 hour at 37° C. in a humid chamber then rinsed once in sterile H2O and allowed to air dry before the drop of laminin at 10 μg/ml is applied to the centre of the coverslip and left for 1 hour at RT before rinsing twice in sterile water and allowing to dry before use. This coating is also done in reverse with the laminin applied first and then the tenascin or the CSPG applied second.
The cells are then seeded onto the prepared coverslips at 2×10^5 cells in 1 ml in a 35 mm petri dish, in DMEM, 10% FCS, and 1% AB/AM. Cells are allowed to attach overnight. The media is then removed and the coverslips rinsed in serum free media and incubated overnight (18 h) in serum free media. After the starvation the cells are fixed and stained to show the morphology of the cells at the boundary. Only neurites expressing neurofilamant are scored.
After 5 minutes, the cells are washed once with serum free DMEM media and then 1 ml of serum free DMEM is added to the tube containing the peptide and BioPorter mix it is vortexed gently before being added to the cells. The cells are incubated for 4 hours at 37° C. After the 4 hour incubation the cells are then incubated for a further 2 hours in 5% FCS DMEM or for cells undergoing a substrate guidance assay the 2 hour incubation is in serum free DMEM. The cells are fixed and stained.
Neurofilament positive neurites are scored for how they respond to Laminin/CSPG boundary. […] However, neurites do have distinct morphologies (FIG. 9A). Thus α, β and γ PAK are not essential for neurite outgrowth.

N1E-115 cells [4] = assay: Axonal guidance towards IGF (preliminary experiments); details: unpublished data
Text: In preliminary experiments we have also examined the effect of the PAK peptides on axonal guidance towards IGF in N1E-115 cells.

Bac1 macrophages = assay: Time lapse / microinjection analysis of Bac1 macrophage morphology (CSF, LPA gradients, C3 toxin)
Protocol: (A) Bac1 cells are grown (24 h) in four different ways and then stained with phalloidin to visualise F-actin. With serum alone (a), without CSF/serum (b), with CSF/serum (c), and with CSF alone (d). (B) Cells are starved of CSF for 24 h and then exposed to gradient of CSF (1.32 nM) through a needle. A time lapse sequence is shown over 30 min. (C) Bac1 macrophages are CSF/serum starved for 24 h and then exposed to a gradient of LPA through a needle. A time lapse sequence is shown over 10 min. (D) Bac1 macrophages starved for serum alone and then exposed to a gradient of CSF through a needle and LPA added to the medium. CSF is added in panel (b) followed by LPA. Panels c-f show process retraction on the side of the cell that is not protected by CSF. Arrows in (B) show the formation of filopodia. Arrows in (C) show process retraction. Bar=10 μM. […]
Proteins purified from E. coli and C3 toxin are microinjected in 50 MM Tris pH 7.5, 50 mM NaCl, 5 mM MgCl2 using an Eppendorf microinjector and Axiovert microscope. Successful injection is determined visually at the time of injection and by use of IgG. […]
Time lapse microscopy is carried out on a heated stage (37° C.) in an atmosphere of humidified air and 5% CO2. Cells are video recorded using a, Axiovert 135 microscope, Palmix TM-6CN video camera and Sony-u-matic V0-5800 PS video recorder. […]

Molecule	formation of filopodia in response to IGF gradient (N1E-115 cells [1])	effect on formation of lamellipodia, filopodia or neurites concluded from microinjection (N1E-115 cells [2])	cell morphology after peptide microinjection (N1E-115 cells [2])	ability to detect the Laminin/CSPG boundary (N1E-115 cells [3]; FIG. 9C)	neurites crossing over the Laminin/CSPG boundary (N1E-115 cells [3]; control approx. 10%, FIG. 9C)	neurite morphology (N1E-115 cells [3])	formation of lamellipodia in response to IGF gradient (N1E-115 cells [1])	decision making process of moving towards IGF (N1E-115 cells [4])	effect on axonal guidance towards IGF (N1E-115 cells [4])	protection from LPA mediated process collapse (Bac1 macrophages; CSF via needle, LPA added to medium after 1.5 min, FIG. 2D)	morphological response of Bac1 cells to a gradient of the factor (Bac1 macrophages; gradient through a needle, FIG. 2B, 2C)
SDNGELEDKPPAPPVRMSST [γP2, peptide derived from γPAK]	inhibit	blocks filopodia formation	large fan-shaped lamellipodia with no filopodia	do not to recognize the boundary	60-70%	smooth and flattened with fan shaped growth cones; also recorded: flattened growth cones and very few filopodia	–	–	–	–	–
SDSLDNEEKPPAPPLRMNSN [βP2, peptide derived from βPAK]	–	blocks lamellipodia formation	numerous filopodia along a newly formed leading edge with no lamellipodia	not affected	–	branched and spiky with lamellipodia and ruffles inhibited	inhibit	does slow down the decision making process	do not affect guidance	–	–
B1	–	–	–	–	–	–	–	–	–	can protect the process nearest to the source of CSF from LPA mediated process collapse	induces the formation of filopodia and lamellipodia
